Results as given in publication PMC6770063, “Utilizing the Combination of Binding Kinetics and Micro-Pharmacokinetics Link in Vitro α-Glucosidase Inhibition to in Vivo Target Occupancy” (Biomolecules, 2019).

What was measured:
[1] = tested on: α-Glucosidase (Saccharomyces cerevisiae); assay: Off-rate by rapid dilution approach; type: biochemical
Description: Among these BK parameters, the off-rate value of acarbose was determined by applying the rapid dilution approaches, which were readily available from the references [35, 49].

[2] = tested on: α-Glucosidase (Saccharomyces cerevisiae); assay: Binding kinetics by reaction progress curve analysis; type: biochemical; conditions: for binding mechanism: kobs versus concentration hyperbolic; for Dissociation Half-Life: ln2 divided by koff (progress curve); for time dependence of inhibition: preincubation and progress curves; for Ki: read-out: Ki* (final equilibrium dissociation constant, true affinity)
Excerpt: Progress curves were fitted to the equation (Equation (1)) described by Williams and Morrison to calculate kobs values for slow binding (i.e., time-dependent) inhibition. (1) A=vs×t+(vi−vs)(1−e^−kobs×t/kobs)+A0 where A is the absorbance; vi and vs are initial and steady-state velocities (expressed in A/time), respectively; t is time; kobs is the pseudo first order rate constant for the approach to steady-state and A0 is the initial blank absorbance at 405 nm. In order to determine inhibition modality and calculate inhibition constants obtained, steady-state rates from progress curves were subsequently fitted to the following steady-state velocity equation (Equation (2)) described by Robert A. Copeland [34] for noncompetitive inhibition:(2) v=vmax×[S]/[S]×(1+[I]/αKi)+Km×(1+[I]/Ki) where v is velocity; Vmax refers to the maximum velocity; [I] is concentration of inhibition; Km refers to Michaelis constant; α is constant.
(3) kobs=k4+(k3×[I]/Kiapp+[I]) (4) kon=k3/Ki (5) koff=k4 (6) Ki*=Ki/1+k3/k4 where k3 is forward enzyme isomerization rate constant; k4 is reverse enzyme isomerization rate constant, Ki^app is the apparent value of the Ki for the initial encounter complex. Ki was estimated using the following Cheng-prusoff equation (Equation (7)) as described previously for noncompetitive inhibition:(7) Kiapp=Ki×(1+[S]/Km)/((1+α)×([S]/Km))

[3] = tested on: α-Glucosidase (Saccharomyces cerevisiae); assay: Surface plasmon resonance (SPR) binding kinetics, immobilized AGH; conditions: 25 °C, 1:1 Langmuir model
Description: Surface plasmon resonance (SPR) experiments were performed to measure the BK parameters between compounds and AGH. After the activation of the surface using NHS and EDC (1:1, v/v), the AGH was immobilized on a CM5 sensor chip (GE healthcare) by using standard amine-coupling at 25 °C with running buffer PBS-P (20 mM phosphate buffer, […], 0.05% surfactant P-20, pH 7.4). The AGH concentration was fixed at 50 ng/µL and the immobilization level of AGH was about 8000 RU (response unit, 1 RU response value is roughly equivalent to 1 pg/mm^2 change of the concentration of the bound substance on the chip surface). After coupling, unreacted NHS ester groups were blocked with ethanolamine. Different concentrations of compounds containing 5% DMSO were serially injected into the channel to evaluate the BK parameters. A reference channel was only activated and blocked to eliminate compound unspecific binding to the surface of the chip. An extra wash with 50% DMSO was added to remove the last remaining sample in the pipeline. The on-rates and the off-rates of the compounds were obtained by fitting the data sets to 1:1 Langmuir binding model using the Biacore T200 Evaluation Software (GE Healthcare).

[4] = tested on: α-Glucosidase (Saccharomyces cerevisiae); assay: Mutual exclusivity study (Yonetani-Theorell); type: biochemical; conditions: combination of ECG with EGCG, Equation (8)
Description: Mutual exclusivity studies were performed by measuring the reaction velocity at several fixed concentrations of one investigated compound while titrating another tested compound with various concentrations, and data were evaluated by the method (Equation (8)) proposed by Yonetanii and Theorell that yielded a value of β for different noncompetitive inhibition by nonlinear regression analysis. (8) 1/vij=1/v0×(1+[I]/Ki+[J]/Kj+[I][J]/βKiKj) where vij is the enzyme velocity in the presence of both compounds at concentrations [I] and [J]; v0 is the velocity in the absence of compound; β is an interaction constant that defines the degree to which binding of one compound perturbs the affinity of the enzyme for the second compound.

[5] = tested on: α-Glucosidase (Saccharomyces cerevisiae); assay: Steady-state velocity fit and double reciprocal plot (inhibition type); type: biochemical; conditions: for constant α: Equation (2), noncompetitive inhibition; for type of inhibition: double reciprocal plot; for Ki: steady-state velocity fit, read-out: free AGH binding inhibition constant (Ki)
Description: The reaction progress of AGH inhibition by ECG was measured under the pseudo-first-order conditions ([I], initiated by the addition of 50 μL AGH to 300 μL of a mixture of tested compound and substrate and monitor the liberation of free pNP at 405 nm. The final pNPG concentrations ranged from 0.18 to 1.44 mM. The compound investigated concentrations were 0, 0.7, 1.4, 2.8, 5.6, 11.2 μM. The reading was recorded every 20 s during 4000 s and blank absorbance values were subtracted from the data before subsequent calculations. Similar experiments were performed with EGCG to measure its reaction progress curve. Progress curves were fitted to the equation (Equation (1)) described by Williams and Morrison to calculate kobs values for slow binding (i.e., time-dependent) inhibition. (1) A=vs×t+(vi−vs)(1−e^−kobs×t/kobs)+A0 where A is the absorbance; vi and vs are initial and steady-state velocities (expressed in A/time), respectively; t is time; kobs is the pseudo first order rate constant for the approach to steady-state and A0 is the initial blank absorbance at 405 nm. In order to determine inhibition modality and calculate inhibition constants obtained, steady-state rates from progress curves were subsequently fitted to the following steady-state velocity equation (Equation (2)) described by Robert A. Copeland [34] for noncompetitive inhibition:(2) v=vmax×[S]/[S]×(1+[I]/αKi)+Km×(1+[I]/Ki) where v is velocity; Vmax refers to the maximum velocity; [I] is concentration of inhibition; Km refers to Michaelis constant; α is constant.
The inhibition type of the tested compounds against AGH was determined using a double reciprocal plot of 1/v as a function of 1/[S] in terms of intersecting lines converging to the location of the y-axis and the x-axis.

[6] = biological target: α-Glucosidase (Saccharomyces cerevisiae); assay: IC50 determination, AGH enzyme inhibition assay (pNPG substrate); type: biochemical; conditions: 15 min preincubation at 37 °C, 0.36 mM pNPG, mean ± SEM of three experiments
Description: Steady-state kinetic studies were carried out on a Multiskan FC Devices. The AGH activity was assayed by adding 50 μL of AGH solution to 300 μL of substrate solution (pNPG was used as the substrate) in 0.1 M PBS buffer (pH 6.8), followed by incubation at 37 °C for 30 min. The AGH activity was measured by monitoring an increase of the p-nitrophenol (pNP) released from substrate pNPG in absorbance at 405 nm.
AGH was preincubated with two tea polyphenols for 15 min at 37 °C, respectively. The reaction was started by the addition of the pNPG (0.36 mM final concentration), and the initial rate was measured by ultraviolet (UV) detector. Linearity of UV response was confirmed with correlation coefficients (R^2) of > 0.99. Data were the means ± standard error of the mean (SEM) of three independent experiments, and were fitted using standard four-parameter logistic models to measure IC50 values by JMP software (version 11.0.0, SAS Institute, Inc., Cary, NC, USA).

[7] = progress curve analysis, two-step induced-fit model

| SMILES | Dissociation Half-Life ([1]; ln2 divided by koff (rapid dilution)) [min] | koff ([1]; rapid dilution approach) | kon ([2]; acarbose, Supplementary Table S2) | koff [3] [s⁻¹] | kon [3] [M⁻¹ s⁻¹] | binding mechanism [2] | Dissociation Half-Life [2] [min] | time dependence of inhibition [2] | koff [2, 7] | kon [2, 7] | Ki ([2]; progress curve analysis) [nM] | β-value (interaction constant) [4] | constant α [5] | type of inhibition [5] | Ki [5] [nM] | IC50 [6] [nM] |
| --- | --- | --- | --- | --- | --- | --- | --- | --- | --- | --- | --- | --- | --- | --- | --- | --- |
| C[C@H]1O[C@H](O[C@H]2[C@H](O)[C@@H](O)[C@@H](O[C@H]3[C@H](O)[C@@H](O)C(O)O[C@@H]3CO)O[C@@H]2CO)[C@H](O)[C@@H](O)[C@@H]1N[C@H]1C=C(CO)[C@@H](O)[C@H](O)[C@H]1O (some centres unmarked) [Acarbose, acarbose] | 606 | 1.9 ± 0.2 10^−5 s^−1 | 2.1 ± 0.3 10^6 M^−1s^−1 | – | – | – | – | – | – | – | – | – | – | – | – | – |
| O=C(O[C@@H]1Cc2c(O)cc(O)cc2O[C@@H]1c1ccc(O)c(O)c1)c1cc(O)c(O)c(O)c1 [ECG, Epicatechin gallate] | – | – | – | 0.0073 | 6300 | two-step induced-fit mechanism | 7.2 | slow binding inhibitor | 1.6 ± 0.3 10^−3 s^−1 | 0.2 ± 0.05 10^3 M^−1s^−1 | 1000 ± 300 | 4133197 | 1.3 | noncompetitive inhibitor | 1100 | 1500 ± 300 |
| O=C(O[C@@H]1Cc2c(O)cc(O)cc2O[C@@H]1c1cc(O)c(O)c(O)c1)c1cc(O)c(O)c(O)c1 [EGCG, epigallocatechin gallate] | – | – | – | 0.0038 | 5700 | two-step induced-fit mechanism | 6 | slow binding inhibition | 1.9 ± 0.2 10^−3 s^−1 | 2.4 ± 0.3 10^3 M^−1s^−1 | 160 ± 30 | 4133197 | 5.6 | noncompetitive inhibitor | 200 | 410 ± 100 |
